Laboratory results: patent US7780859B2, “Uncoupling agents” (Rhodia Operations, priority 2003, dated 2010)
Read-outs that look alike come from different tables or passages of the source.

What was measured:
[1] = system: municipal activated sludge; test: Laboratory screening test for growth uncoupling by oxygen consumption pattern analysis (Oxitop BOD system); conditions: test biocides at 1, 2.5, 5, 10 and 25 mg/l; 2,4-dinitrophenol at 20 mg/l; 7 days at 20° C.
Description: A laboratory screening test was developed to determine the impact of chemical compounds on respiration parameters through an oxygen consumption pattern analysis using a model based on published work by Monod and Pirt^1. Growth uncoupling is characterised by an increase in oxygen consumption during bacterial growth in a synthetic growth medium. 1. Monod J. 1950, Ann Inst Pasteur, “La Technique de Culture Continue, Theorie et Applications”, 79:390-410. Monod J. 1942, “Recherches sur la Croissance des Cultures Bactériennes”. Paris Herman p. 210. Pirt S J. (1965) “The Maintenance Energy of Bacteria In Growing Cultures”. Proceedings of the Royal Society of London B 163, 224-231. “Principles of Water Quality Management”. Ed: W. W. Eckenfelder, Jr. CBI Publishing Company, Inc USA. […]
For the evaluation of proposed water-soluble biocides, the oxygen consumption kinetics are measured and, a process of computer iteration optimises the equation coefficients optimised to fit the oxygen consumption curve.
From the optimised coefficients, the degree of bacterial uncoupling can be calculated. […]
Three conventional water treatment biocides were evaluated as bacterial water-soluble biocides. […]
Based on the liquid sludge, 2,4-dinitrophenol was dosed at 20 mg/l, this being the known level at which significant uncoupling would result. The test biocides were each evaluated at 1, 2.5, 5, 10 and 25 mg/l. […]

[2] = system: sludge microorganisms; conditions: 4 mg/l/day, pre-dilution, 52 days
Procedure: The equipment used in this test sequence was identical to that used for example 1 except that the reactor was not fitted with a recirculating line for flash mixing.
The procedure was identical to that used for example 1 except that the method of dosing Compound X was different. In this case, 5 grams of Compound X was mixed into a solution containing 5 grams of sodium hydrogen carbonate in 1 liter of deionised water. 4.0 ml of this solution was added to 500 ml of clarified wastewater which had been extracted from the bioreactor. The treated clarified wastewater was then returned to the bioreactor and normal operation of the bioreactor was resumed. The final concentration of Compound X in the bioreactor therefore equates to 4 mg per liter. This procedure was conducted daily, 5 times per week.
The experiment was conducted in parallel with example 1, i.e. for 52 days before decommissioning the system.
A Compound X concentration of 4 milligrams per liter per day was used.

[3] = system: sludge microorganisms; conditions: for Growth Yield / Specific Activity / Growth Yield Reduction: flash mixing, 52 days; for Growth Yield Reduction: vs untreated control
Description: A series of semi-continuous chemostat reactors was constructed to simulate wastewater treatment processes.
The central part of the equipment is the biological chemostat reactor 1. The reactor vessel 2 is made of glass, with an internal volume of 10 liters and is fitted with pH 3 and dissolved oxygen 4 sensors and an air sparge 5. This contains the sludge, which is, essentially, a mass of typical wastewater treatment microorganisms. The reactor operates at an ambient temperature (approximately 20° C.).
Simulated wastewater 13 is contained in a separate vessel 6 and maintained at 4° C. to prevent microbial spoilage. It is transferred into the reactor via a supply line 7 and a peristaltic pump 8.
A recirculating line 9 is provided on the reactor comprising a length of flexible silicone tubing and a peristaltic pump 10. The peristaltic pump extracts the sludge from the reactor into the recirculation line. The candidate water-soluble biocide is introduced into this line 9 through a needle 11, which is fed by a syringe pump 12. Using this system it is possible to achieve “flash mixing” which ensures rapid contact of the water-soluble biocide with the sludge microorganisms. The internal diameter of the recirculating line was 8 mm and the flow velocity was 0.5 meters per second, which gave a contact time, between candidate water-soluble biocide and sludge of 3 seconds before it re-entered the reactor.
Treated effluent 17 is removed from the reactor into a collecting vessel 16 via an outlet line 15.
The reactor was charged with sludge obtained from the Municipal wastewater treatment works at Courly-Lyon, in France. This sludge provided the “seed” to start the process off. The reactor was then filled, to the 5 liter mark, with simulated wastewater, adjusted to approximately pH 7.5, and aeration was commenced.
Each weekday (i.e. 5 times per week), 13.3% of the bioreactor contents were withdrawn to maintain the equilibrium. This ensured a sludge age in the region of 7.5 days.
Also, each weekday, after the adjustments described in the preceding paragraph, candidate water-soluble biocide (as a dilute solution) was injected into the system via the flash mixing recirculating line. The dilute solution was prepared by dissolving 10 grams of sodium hydrogen carbonate in approximately 900 ml of deionised water then adding 5 grams of candidate water-soluble biocide and mixing well. The mixture was then made up to 1 liter with deionised water. The appropriate volume of this dilute solution was injected to achieve the required dose level.
The experiment was conducted for 52 days before decommissioning the system.
Compound X was evaluated in the test. This compound is a 75% aqueous solution of tetrakis(hydroxymethyl)phosphonium sulphate (THPS). Two concentrations were evaluated: 2 and 4 milligrams per liter per day.

Row | Molecule | level of uncoupling (percentage uncoupling, FIG. 4) [1] | Growth Yield [2] | Specific Activity [2] | Growth Yield Reduction ([2]; vs untreated control) | Growth Yield ([3]; 2 mg/l/day) | Specific Activity ([3]; 2 mg/l/day) | Growth Yield Reduction ([3]; 2 mg/l/day) | Growth Yield ([3]; 4 mg/l/day) | Specific Activity ([3]; 4 mg/l/day) | Growth Yield Reduction ([3]; 4 mg/l/day) | sludge growth ([3]; flash treatment, low dose levels) | concentration of protozoans and other higher organisms in the sludge ([3]; treated sludge relative to untreated) | filamentous bacteria in the sludge ([3]; treated systems vs untreated control)
1 | CCCCCCCCCCCC[N+](C)(C)C.[Cl-] [C, Dodecyltrimethylammonium chloride] | greater levels of uncoupling at significantly lower dose levels than the conventional water-soluble biocide, 2,4-dinitrophenol |  |  |  |  |  |  |  |  |  |  |  | 
2 | tetrakis(hydroxymethyl)phosphonium sulphate [Compound X] |  | 0.201 g MLSS/g COD | 0.636 g COD/g MLSS.d | 26.4% | 0.202 g MLSS/g COD | 0.582 g COD/g MLSS.d | 27.7% | 0.167 g MLSS/g COD | 0.772 g COD/g MLSS.d | 37.6% | significantly reducing sludge growth | significantly higher concentration | substantially absent
